The structures appear in SMILES notation.

One assay has as its system m-IMCD3 cells. In words: Inhibition of PGE2-stimulated in vitro cyst formation in m-IMCD3 cells. To be noted: Mus musculus, mIMCD3, 144 h, 3 μM; mean cyst area, 100% for (DMSO + PGE2) and 0% for DMSO control; 6 days of culture; read-out: % Cyst area after incubation with 3 μM test compound. Format: cell-based, mouse. The essentials: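 m-IMCD3 cells embedded in collagen I/Matrigel 3D culture; 18–24 h after plating, compound (0.1% DMSO final) plus PGE2 (100 nM final) added, replenished after 2 or 3 days. After 6 days, z-stack imaging gave mean cyst area, normalized to DMSO+PGE2 (100%) and DMSO (0%).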
Take `O=C(COc1ccccc1OCCO)N1CCc2nc(N3C4CCC3CNC4)sc2C1` [Example 250, 1-(2-(3,8-diazabicyclo[3.2.1]octan-8-yl)-6,7-dihydrothiazolo[5,4-c]pyridin-5(4H)-yl)-2-(2-(2-hydroxyethoxy)phenoxy)ethan-1-one]: the activity at 3 µM came out at 17%. `CCN1CC2CCC(C1)N2c1nc2c(s1)CN(S(=O)(=O)Cc1ccccc1)CC2` [Example 289, 5-(benzylsulfonyl)-2-(3-ethyl-3,8-diazabicyclo[3.2.1]octan-8-yl)-4,5,6,7-tetrahydrothiazolo[5,4-c]pyridine]: the activity at 3 µM is -7%. Same read-out and setting: the result for `O=C(c1coc2ccccc12)N1CCc2nc(N3C4CCC3CNC4)sc2C1` [Example 187, (2-(3,8-diazabicyclo[3.2.1]octan-8-yl)-6,7-dihydrothiazolo[5,4-c]pyridin-5(4H)-yl)(benzofuran-3-yl)methanone] reads -8%; that for `CC(C)(C)CC(=O)N1CCc2nc(N3CCNCC3)sc2C1` [Example 274, 3,3-dimethyl-1-(2-(piperazin-1-yl)-6,7-dihydrothiazolo[5,4-c]pyridin-5(4H)-yl) butan-1-one], 14%. On the same count and under the same terms, the result for `N#Cc1ccccc1C(=O)N1CCc2nc(N3C4CCC3CNC4)sc2C1` [Example 213, 2-(2-(3,8-diazabicyclo[3.2.1]octan-8-yl)-4,5,6,7-tetrahydrothiazolo[5,4-c]pyridine-5-carbonyl)benzonitrile] reads 17%; that for `O=C(c1ccc(F)cc1)N1CCc2nc(N3C4CCC3CNC4)sc2C1` [Example 198, (2-(3,8-diazabicyclo[3.2.1]octan-8-yl)-6,7-dihydrothiazolo[5,4-c]pyridin-5(4H)-yl)(4-fluorophenyl)methanone], -5%. On the same count and under the same terms, to `CC1(C)CN(C(=O)[C@H](O)C2CCCC2)Cc2sc(N3C4CCC3CNC4)nc21` [Example 262, (2R)-1-(2-(3,8-diazabicyclo[3.2.1]octan-8-yl)-7,7-dimethyl-6,7-dihydrothiazolo[5,4-c]pyridin-5(4H)-yl)-2-cyclopentyl-2-hydroxyethan-1-one] belongs 23%; to `O=C(c1ccc(F)nc1)N1CCc2nc(N3C4CCC3CNC4)sc2C1` [Example 200, (2-(3,8-diazabicyclo[3.2.1]octan-8-yl)-6,7-dihydrothiazolo[5,4-c]pyridin-5(4H)-yl)(6-fluoropyridin-3-yl)methanone], 4%. Regarding `O=C(c1ccc(C2CC2)cc1)N1CCc2nc(N3C4CCC3CNC4)sc2C1` [Example 228, (2-(3,8-diazabicyclo[3.2.1]octan-8-yl)-6,7-dihydrothiazolo[5,4-c]pyridin-5(4H)-yl)(4-cyclopropylphenyl)methanone], the activity at 3 µM was -6%. Same read-out and setting: the result for `CC1(C)CN(C(=O)c2ccc(F)nc2)Cc2sc(N3C4CCC3CNC4)nc21` [Example 264, (2-(3,8-diazabicyclo[3.2.1]octan-8-yl)-7,7-dimethyl-6,7-dihydrothiazolo[5,4-c]pyridin-5(4H)-yl)(6-fluoropyridin-3-yl)methanone] reads -1%; that for `O=C(c1cc2ccccc2cn1)N1CCc2nc(N3C4CCC3CNC4)sc2C1` [Example 192, (2-(3,8-diazabicyclo[3.2.1]octan-8-yl)-6,7-dihydrothiazolo[5,4-c]pyridin-5(4H)-yl)(isoquinolin-3-yl)methanone], 1%; that for `O=C(c1cccc2c1OC(F)(F)O2)N1CCc2nc(N3C4CCC3CNC4)sc2C1` [Example 233, (2-(3,8-diazabicyclo[3.2.1]octan-8-yl)-6,7-dihydrothiazolo[5,4-c]pyridin-5(4H)-yl)(2,2-difluorobenzo[d][1,3]dioxol-4-yl)methanone], -2%.

Staying with this assay, now noted: Mus musculus, mIMCD3, 144 h, 10 μM; mean cyst area, 100% for (DMSO + PGE2) and 0% for DMSO control; 6 days of culture; read-out: % Cyst area after incubation with 10 μM test compound.
As to `COc1ccccc1OCC(=O)N1CCc2nc(N3C4CCC3CNC4)sc2C1` [Example 138, 1-(2-(3,8-diazabicyclo[3.2.1]octan-8-yl)-6,7-dihydrothiazolo[5,4-c]pyridin-5(4H)-yl)-2-(2-methoxyphenoxy)ethan-1-one], the activity at 10 µM was determined as 0%. Still for that read-out and setting: the result for `Cc1cc(F)ccc1OCC(=O)N1CCc2nc(N3C4CCC3CNC4)sc2C1` [Example 145, 1-(2-(3,8-diazabicyclo[3.2.1]octan-8-yl)-6,7-dihydrothiazolo[5,4-c]pyridin-5(4H)-yl)-2-(4-fluoro-2-methylphenoxy)ethan-1-one] reads 17%; that for `COc1cc(F)ccc1OCC(=O)N1CCc2nc(N3C4CCC3CNC4)sc2C1` [Example 143, 1-(2-(3,8-diazabicyclo[3.2.1]octan-8-yl)-6,7-dihydrothiazolo[5,4-c]pyridin-5(4H)-yl)-2-(4-fluoro-2-methoxyphenoxy)ethan-1-one], 2%; that for `O=C(NCc1ccc(C(F)(F)F)cc1)N1CCc2nc(N3C4CCC3CNC4)sc2C1` [Example 56, 2-(3,8-diazabicyclo[3.2.1]octan-8-yl)-N-(4-(trifluoromethyl)benzyl)-6,7-dihydrothiazolo[5,4-c]pyridine-5(4H)-carboxamide], -6%. Same read-out and setting: to `CC(Oc1ccccc1)C(=O)N1CCc2nc(N3C4CCC3CNC4)sc2C1` (stereo not drawn) [Example 23, 1-(2-(3,8-diazabicyclo[3.2.1]octan-8-yl)-6,7-dihydrothiazolo[5,4-c]pyridin-5(4H)-yl)-2-phenoxypropan-1-one] belongs 0%; to `O=C(COc1ccnc(F)c1)N1CCc2nc(N3C4CCC3CNC4)sc2C1` [Example 73, 1-(2-(3,8-diazabicyclo[3.2.1]octan-8-yl)-6,7-dihydrothiazolo[5,4-c]pyridin-5(4H)-yl)-2-((2-fluoropyridin-4-yl)oxy)ethan-1-one], 3%; to `O=C(CC1CCC(F)(F)CC1)N1CCc2nc(N3C4CCC3CNC4)sc2C1` [Example 2, 1-(2-(3,8-diazabicyclo[3.2.1]octan-8-yl)-6,7-dihydrothiazolo[5,4-c]pyridin-5(4H)-yl)-2-(4,4-difluorocyclohexyl)ethan-1-one], 2%. Same read-out and setting: to `CC1(CC(=O)N2CCc3nc(N4C5CCC4CNC5)sc3C2)CCC1` [Example 130, 1-(2-(3,8-diazabicyclo[3.2.1]octan-8-yl)-6,7-dihydrothiazolo[5,4-c]pyridin-5(4H)-yl)-2-(1-methylcyclobutyl)ethan-1-one] belongs -5%; to `COC1(CC(=O)N2CCc3nc(N4C5CCC4CNC5)sc3C2)CCCC1` [Example 134, 1-(2-(3,8-diazabicyclo[3.2.1]octan-8-yl)-6,7-dihydrothiazolo[5,4-c]pyridin-5(4H)-yl)-2-(1-methoxycyclopentyl)ethan-1-one], -4%; to `O=C(Cc1ccc(F)cc1)N1CCc2nc(N3C4CCC3CNC4)sc2C1` [Example 25, 1-(2-(3,8-diazabicyclo[3.2.1]octan-8-yl)-6,7-dihydrothiazolo[5,4-c]pyridin-5(4H)-yl)-2-(4-fluorophenyl)ethan-1-one], 6%. For `COc1cc(F)ccc1CCC(=O)N1CCc2nc(N3C4CCC3CNC4)sc2C1` [Example 147, 1-(2-(3,8-diazabicyclo[3.2.1]octan-8-yl)-6,7-dihydrothiazolo[5,4-c]pyridin-5(4H)-yl)-3-(4-fluoro-2-methoxyphenyl)propan-1-one], the activity at 10 µM is 9%. As for `CC1(NC(=O)N2CCc3nc(N4C5CCC4CNC5)sc3C2)CCCC1` [Example 125, 2-(3,8-diazabicyclo[3.2.1]octan-8-yl)-N-(1-methylcyclopentyl)-6,7-dihydrothiazolo[5,4-c]pyridine-5(4H)-carboxamide], the activity at 10 µM is -11%. For `CN1CC2CCC(C1)N2c1nc2c(s1)CN(C(=O)CC1CCCC1)CC2` [Example 75, 2-cyclopentyl-1-(2-(3-methyl-3,8-diazabicyclo[3.2.1]octan-8-yl)-6,7-dihydrothiazolo[5,4-c]pyridin-5(4H)-yl)ethan-1-one], the activity at 10 µM is -4%. Turning to `O=C(CC1CCC2(CC1)COC2)N1CCc2nc(N3C4CCC3CNC4)sc2C1` [Example 155, 1-(2-(3,8-diazabicyclo[3.2.1]octan-8-yl)-6,7-dihydrothiazolo[5,4-c]pyridin-5(4H)-yl)-2-(2-oxaspiro[3.5]nonan-7-yl)ethan-1-one], the activity at 10 µM was -3%.

`O=C(CC1CCCC1)N1CCc2nc(N3CCNC[C@H]3CO)sc2C1` [Example 284, (S)-2-cyclopentyl-1-(2-(2-(hydroxymethyl)piperazin-1-yl)-6,7-dihydrothiazolo[5,4-c]pyridin-5(4H)-yl)ethan-1-one]: the activity at 10 µM was found to be 19%.

For the origin of these results see patent US20250388604A1, “Compounds and Their Use as PDE4 Activators” (Mironid Limited, priority 2022, published 2025).
